According to patent US20240148821A1, “PHARMACEUTICAL USE OF CYCLIC PEPTIDE COMPOUND” (CHUGAI SEIYAKU KABUSHIKI KAISHA, priority 2021, published 2024):
Bridge positions count the residues as written; N and C are the ends. Square brackets hold non-standard residues; d marks the D form. Peptide text beside a SMILES is read from it. * marks the point of attachment. hPhe(3-Cl-4-CF3) = N[C@@H](CCc1ccc(C(F)(F)F)c(Cl)c1)C(=O)O; hPhe(3-F,4-CF3) = N[C@@H](CCc1ccc(C(F)(F)F)c(F)c1)C(=O)O; NMePhe(4-CF3) = CN[C@@H](Cc1ccc(C(F)(F)F)cc1)C(=O)O; 3Oxa8azabicyclo(3.2.1)octane = C1CC2COCC1N2*; NMeAla(cPent) = CN[C@@H](CC1CCCC1)C(=O)O; NMeGly(cPent) = CN[C@H](C(=O)O)C1CCCC1; NMeCha = CN[C@@H](CC1CCCCC1)C(=O)O; NMehLeu = CN[C@@H](CCC(C)C)C(=O)O; NEtLeu = CCN[C@@H](CC(C)C)C(=O)O; NMeI = CC[C@H](C)[C@H](NC)C(=O)O; Piperidide(4-Me) = CC1CCN(*)CC1; NMeD = CN[C@@H](CC(=O)O)C(=O)O; NMeL = CN[C@@H](CC(C)C)C(=O)O; NMeV = CN[C@H](C(=O)O)C(C)C; NMeS = CN[C@@H](CO)C(=O)O; Morpholide = C1CN(*)CCO1; NMeA = CN[C@@H](C)C(=O)O; Pyrrolidide = C1CCN(*)C1; Ac5c = NC1(C(=O)O)CCCC1; Aze = O=C(O)[C@@H]1CCN1; NEtG = CCNCC(=O)O; Sar = CNCC(=O)O; Propyl = CCC*

These compounds were tested against protein-protein interaction between Kras and SOS1 (biotin-tagged human Kras loaded with GDP, His-tagged human SOS1) (Homo sapiens (Human), UniProt P01116, G12D) (assay: Protein-protein interaction inhibition between Kras and SOS1 (KrasG12D-SOS PPI) using AlphaScreen). Settings: AlphaScreen; biotin-tagged human Kras loaded with GDP, His-tagged human SOS1; read-out: KRAS G12D-SOS PPI IC50.
Assay type: biochemical
Work on `CC[C@H](C)[C@@H]1NC(=O)[C@H](CC(C)C)N(C)C(=O)C[C@@H](C(=O)N2CCOCC2)N(C)C(=O)[C@H](C2CCCC2)N(C)C(=O)C2(CCCC2)NC(=O)[C@@H]2CCCN2C(=O)[C@H](CCc2ccc(C(F)(F)F)c(Cl)c2)NC(=O)CN(C)C(=O)[C@H](CC2CCCCC2)N(C)C(=O)[C@@H]2CCN2C(=O)[C@H](C)NC1=O` [Compound 1137] ([NMeL]IA[Aze][NMeCha][Sar][hPhe(3-Cl-4-CF3)]P[Ac5c][NMeGly(cPent)][NMeD]-Morpholide; lactam N-11) yielded an IC50 of 4.6 nM. Compound `CC[C@H](C)[C@@H]1NC(=O)[C@H](CC(C)C)N(CC)C(=O)C[C@@H](C(=O)N2CCOCC2)N(C)C(=O)[C@H](C2CCCC2)N(C)C(=O)C2(CCCC2)NC(=O)[C@@H]2CCCN2C(=O)[C@H](CCc2ccc(C(F)(F)F)c(Cl)c2)NC(=O)CN(C)C(=O)[C@H](C2CCCC2)N(C)C(=O)[C@@H]2CCN2C(=O)[C@H](C)NC1=O` [Compound 1140] ([NEtLeu]IA[Aze][NMeGly(cPent)][Sar][hPhe(3-Cl-4-CF3)]P[Ac5c][NMeGly(cPent)][NMeD]-Morpholide; lactam N-11) has an IC50 of 2 nM. For `CC[C@H](C)[C@@H]1NC(=O)[C@H](CC(C)C)N(C)C(=O)C[C@@H](C(=O)N2CCOCC2)N(C)C(=O)[C@H](C2CCCC2)N(C)C(=O)C2(CCCC2)NC(=O)[C@@H]2CCCN2C(=O)[C@H](CCc2ccc(C(F)(F)F)c(Cl)c2)NC(=O)CN(CC)C(=O)[C@H](C2CCCC2)N(C)C(=O)[C@@H]2CCN2C(=O)[C@H](C)N(C)C1=O` [Compound 1142] ([NMeL]I[NMeA][Aze][NMeGly(cPent)][NEtG][hPhe(3-Cl-4-CF3)]P[Ac5c][NMeGly(cPent)][NMeD]-Morpholide; lactam N-11), the IC50 was 6.5 nM. Work on `CC[C@H](C)[C@@H]1NC(=O)[C@H](CC2CCCC2)N(C)C(=O)C[C@@H](C(=O)N2CCOCC2)N(C)C(=O)[C@H](C2CCCC2)N(C)C(=O)C2(CCCC2)NC(=O)[C@@H]2CCCN2C(=O)[C@H](CCc2ccc(C(F)(F)F)c(Cl)c2)NC(=O)CN(C)C(=O)[C@H](C2CCCC2)N(C)C(=O)[C@@H]2CCN2C(=O)[C@H](C)NC1=O` [Compound 1145] ([NMeAla(cPent)]IA[Aze][NMeGly(cPent)][Sar][hPhe(3-Cl-4-CF3)]P[Ac5c][NMeGly(cPent)][NMeD]-Morpholide; lactam N-11) yielded an IC50 of 1.1 nM. Work on `CC[C@H](C)[C@@H]1NC(=O)[C@H](CC(C)C)N(CC)C(=O)C[C@@H](C(=O)N2CCCC2)N(C)C(=O)[C@H]([C@@H](C)CC)N(C)C(=O)C2(CCCC2)NC(=O)[C@@H]2CCCN2C(=O)[C@H](CCc2ccc(C(F)(F)F)c(Cl)c2)NC(=O)CN(C)C(=O)[C@H](Cc2ccc(C(F)(F)F)cc2)N(C)C(=O)[C@@H]2CCN2C(=O)[C@H](C)NC1=O` [Compound 1146] ([NEtLeu]IA[Aze][NMePhe(4-CF3)][Sar][hPhe(3-Cl-4-CF3)]P[Ac5c][NMeI][NMeD]-Pyrrolidide; lactam N-11) yielded an IC50 of 1.9 nM. In the case of `CCCOC[C@H]1C(=O)N(C)CC(=O)N[C@@H](CCc2ccc(C(F)(F)F)c(Cl)c2)C(=O)N2CCC[C@H]2C(=O)NC2(CCCC2)C(=O)N(C)[C@@H](C2CCCC2)C(=O)N(C)[C@H](C(=O)N2C3CCC2COC3)CC(=O)N(C)[C@@H](CCC(C)C)C(=O)N[C@@H]([C@@H](C)CC)C(=O)N(C)[C@@H](C)C(=O)N2CC[C@H]2C(=O)N1C` [Compound 1154] ([NMehLeu]I[NMeA][Aze][NMeS](Propyl)[Sar][hPhe(3-Cl-4-CF3)]P[Ac5c][NMeGly(cPent)][NMeD]-{3Oxa8azabicyclo(3.2.1)octane}; lactam N-11), the IC50 is reported as 2.4 nM. `CC[C@H](C)[C@@H]1NC(=O)[C@H](CC(C)C)N(C)C(=O)C[C@@H](C(=O)N2CCCC2)N(C)C(=O)[C@H]([C@@H](C)CC)N(C)C(=O)C2(CCCC2)NC(=O)[C@@H]2CCCN2C(=O)[C@H](CCc2ccc(C(F)(F)F)c(Cl)c2)NC(=O)CN(CC)C(=O)[C@H](Cc2ccc(C(F)(F)F)cc2)N(C)C(=O)[C@@H]2CCN2C(=O)[C@H](C)N(C)C1=O` [Compound 1159] ([NMeL]I[NMeA][Aze][NMePhe(4-CF3)][NEtG][hPhe(3-Cl-4-CF3)]P[Ac5c][NMeI][NMeD]-Pyrrolidide; lactam N-11) showed an IC50 of 2.8 nM. Work on `CC[C@H](C)[C@@H]1NC(=O)[C@H](CC(C)C)N(C)C(=O)C[C@@H](C(=O)N2CCC(C)CC2)NC(=O)[C@H](C(C)C)N(C)C(=O)C2(CCCC2)NC(=O)[C@@H]2CCCN2C(=O)[C@H](CCc2ccc(C(F)(F)F)c(Cl)c2)NC(=O)CN(C)C(=O)[C@H](CC2CCCCC2)N(C)C(=O)[C@@H]2CCN2C(=O)[C@H](C)N(C)C1=O` [Compound 1161] ([NMeL]I[NMeA][Aze][NMeCha][Sar][hPhe(3-Cl-4-CF3)]P[Ac5c][NMeV]D-{Piperidide(4-Me)}; lactam N-11) yielded an IC50 of 60 nM. Work on `CC[C@H](C)[C@@H]1NC(=O)[C@H](CC(C)C)N(C)C(=O)C[C@@H](C(=O)N(C)C)N(C)C(=O)[C@H](C2CCCC2)N(C)C(=O)C2(CCCC2)NC(=O)[C@@H]2CCCN2C(=O)[C@H](CCc2ccc(C(F)(F)F)c(F)c2)NC(=O)CN(C)C(=O)[C@H](CC2CCCCC2)N(C)C(=O)[C@@H]2CCN2C(=O)[C@H](C)NC1=O` [Compound 1164] ([NMeL]IA[Aze][NMeCha][Sar][hPhe(3-F,4-CF3)]P[Ac5c][NMeGly(cPent)][NMeD]-NMe2; lactam N-11) yielded an IC50 of 1.4 nM.
